Patent US10231453B2, “5-substituted imidazole derivatives” (BAYER CROPSCIENCE AKTIENGESELLSCHAFT, priority 2015, dated 2019)
Like-named read-outs stand apart in the source and are kept apart here.

What was measured:
Pyrenophora teres = assay: In vivo preventive test on Pyrenophora teres (net blotch on barley), Examples D, Q2 and R4; settings: Pyrenophora teres, 336 h; for pest or weed control at 100 ppm: Example R4, rate of application 100 ppm
Botrytis cinerea = assay: In vivo preventive test on Botrytis cinerea (grey mould) on gherkin, Examples B, Q1 and R2; settings: Botrytis cinerea; for pest or weed control at 100 ppm: Example R2, rate of application 100 ppm
Pyricularia oryzae = assay: whole plant or invertebrate; assay type: in vivo; settings: 192 h, read-out: efficacy
Fusarium graminearum = assay: whole plant or invertebrate; assay type: in vivo; settings: in Hordeum vulgare, 120 h, read-out: efficacy
Sphaerotheca fuliginea = assay: In vivo preventive test on Sphaerotheca fuliginea (powdery mildew on cucurbits), Examples F and R6; settings: Podosphaera fuliginea, 360 h, preventive spray, evaluated 15 days after inoculation
Alternaria brassicae = assay: In vivo preventive test on Alternaria brassicae (leaf spot on radish), Examples A and R1; settings: Alternaria brassicae, 144 h
Puccinia recondita = assay: In vivo preventive test on Puccinia recondita (brown rust on wheat), Examples C and R3; settings: Puccinia recondita, 264 h, preventive spray, evaluated 11 days after inoculation
Uromyces appendiculatus = assay: In vivo preventive test on Uromyces appendiculatus (bean rust), Examples G and R7; settings: 264 h, preventive spray, evaluated 11 days after inoculation
Leptosphaeria nodorum = assay: In vivo preventive Leptosphaeria nodorum test (wheat), Example N; settings: Parastagonospora nodorum, 192 h, 500 ppm of active ingredient, preventive spray, evaluated 8 days after inoculation, read-out: efficacy
Text: After the spray coating has been dried, the plants are sprayed with a spore suspension of Leptosphaeria nodorum.

[1] = test system: Fusarium nivale (var. majus); assay: In vivo preventive Fusarium nivale (var. majus) test (wheat), Example O; settings: Microdochium nivale, 120 h, 500 ppm of active ingredient, preventive spray, evaluated 5 days after inoculation, read-out: efficacy
Text: After the spray coating has been dried, the plants are slightly injured by using a sandblast and afterwards they are sprayed with a conidia suspension of Fusarium nivale (var. majus).

[2] = Measurement of LogP values by HPLC on reversed phase columns (EEC directive 79/831 Annex V.A8); assay type: physicochemical; settings: acidic range, Table 1
Description: Measurement of Log P values was performed as outlined above.

Fusarium culmorum = assay: In vivo preventive Fusarium culmorum test (wheat), Example L; settings: 120 h, 500 ppm of active ingredient, preventive spray, evaluated 5 days after inoculation, read-out: efficacy
Description: After the spray coating has been dried, the plants are slightly injured by using a sandblast and afterwards they are sprayed with a conidia suspension of Fusarium culmorum.
The test is evaluated 5 days after the inoculation.

[3] = test system: Blumeria graminis fsp. hordei; assay: In vivo preventive Blumeria test (barley), Example K; settings: 168 h, 500 ppm of active ingredient, preventive spray, evaluated 7 days after inoculation, read-out: efficacy
Text: After the spray coating has been dried, the plants are dusted with spores of Blumeria graminis fsp. hordei.

Septoria tritici = assay: In vivo preventive test on Septoria tritici (leaf spot on wheat), Examples E, Q3 and R5; settings: Zymoseptoria tritici, 576 h, preventive spray, evaluated 24 days after inoculation
Phakopsora pachyrhizi = assay: In vivo preventive Phakopsora test (soybeans), Example I; settings: 168 h, 100 ppm of active ingredient, preventive spray, evaluated 7 days after inoculation, read-out: efficacy
Alternaria solani = assay: In vivo preventive Alternaria test (tomatoes), Example H; settings: 72 h, 100 ppm of active ingredient, preventive spray, evaluated 3 days after inoculation, read-out: efficacy
Venturia inaequalis = assay: In vivo preventive Venturia test (apples), Example J; settings: 240 h, read-out: efficacy
Description: After the spray coating has dried on, the plants are inoculated with an aqueous conidia suspension of the causal agent of apple scab (Venturia inaequalis) and then remain for 1 day in an incubation cabinet at approximately 20° C. and a relative atmospheric humidity of 100%.
The plants are then placed in a greenhouse at approximately 21° C. and a relative atmospheric humidity of approximately 90%.
The test is evaluated 10 days after the inoculation.

[4] = 500 ppm of active ingredient, preventive spray, evaluated 14 days after inoculation, read-out: efficacy
[5] = 500 ppm of active ingredient, preventive spray, evaluated 4 to 5 days after inoculation, read-out: efficacy
[6] = 500 ppm of active ingredient, gherkin, read-out: efficacy
[7] = 500 ppm of active ingredient, preventive spray, evaluated 6 days after inoculation, read-out: efficacy
[8] = 500 ppm of active ingredient, wheat, read-out: efficacy
[9] = 500 ppm of active ingredient, bean, read-out: efficacy
[10] = method [a]: LC-UV, 0.1% formic acid in water and acetonitrile as eluent
[11] = Example R4, rate of application 500 ppm, read-out: Efficacy in %
[12] = Example R2, rate of application 500 ppm, read-out: Efficacy in %
[13] = Example R6, gherkin, read-out: Efficacy in %
[14] = Example R6, gherkin, 500 ppm, read-out: Efficacy in %
[15] = Example R3, wheat, read-out: Efficacy in %
[16] = Example R3, wheat, 500 ppm, read-out: Efficacy in %
[17] = Example R7, bean, read-out: Efficacy in %
[18] = Example R7, bean, 500 ppm, read-out: Efficacy in %
[19] = Example R5, wheat, read-out: Efficacy in %
[20] = Example R5, wheat, 500 ppm, read-out: Efficacy in %

| Structure (SMILES) | pest or weed control at 500 ppm (Pyrenophora teres; [4]) | pest or weed control at 500 ppm (Botrytis cinerea; [5]) | pest or weed control at 500 ppm (Pyricularia oryzae) | pest or weed control at 500 ppm (Fusarium graminearum) | pest or weed control at 500 ppm (Sphaerotheca fuliginea; [6]) | pest or weed control at 500 ppm (Alternaria brassicae; [7]) | pest or weed control at 500 ppm (Puccinia recondita; [8]) | pest or weed control at 500 ppm (Uromyces appendiculatus; [9]) | pest or weed control at 500 ppm (Leptosphaeria nodorum) | pest or weed control at 500 ppm [1] | chromatographic logP [2, 10] | pest or weed control at 500 ppm (Fusarium culmorum) | pest or weed control at 500 ppm [3] | pest or weed control at 500 ppm (Septoria tritici; [8]) | pest or weed control at 100 ppm (Pyrenophora teres; read-out: Efficacy in %) | pest or weed control at 500 ppm (Pyrenophora teres; [11]) | pest or weed control at 100 ppm (Botrytis cinerea; read-out: Efficacy in %) | pest or weed control at 100 ppm (Phakopsora pachyrhizi) | pest or weed control at 100 ppm (Alternaria solani) | pest or weed control at 100 ppm (Venturia inaequalis) | other results |
| --- | --- | --- | --- | --- | --- | --- | --- | --- | --- | --- | --- | --- | --- | --- | --- | --- | --- | --- | --- | --- | --- |
| OC(Cc1ccccc1Cl)(Cn1cncc1Cl)C1(Cl)CC1 (stereo not shown) [Example I-02] | 90 to 100% | 90 to 100% | 70 to 79% | 80 to 89% | 90 to 100% | 90 to 100% | 80 to 89% | 90 to 100% | 90 to 100% | 90 to 100% | 2.32 | 70 to 79% | 90 to 100% | 90 to 100% |  |  |  |  |  |  | chromatographic logP ([2]; method [c]: LC-UV, 0.1% phosphoric acid and acetonitrile as eluent): 2 |
| OC(Cc1ccccc1Cl)(Cn1cncc1Br)C1(Cl)CC1 (stereo not shown) [Example I-04] | 90 to 100% | 90 to 100% | 90 to 100% | 70 to 79% | 90 to 100% | 70 to 79% | 90 to 100% | 90 to 100% | 90 to 100% | 90 to 100% | 2.27 |  | 90 to 100% | 90 to 100% | 71% | 93% | 90% | 90 to 100% | 90 to 100% | 90 to 100% | pest or weed control at 500 ppm (Botrytis cinerea; [12]): 100%; pest or weed control at 100 ppm (Sphaerotheca fuliginea; [13]): 100%; pest or weed control at 500 ppm (Sphaerotheca fuliginea; [14]): 100%; pest or weed control at 100 ppm (Alternaria brassicae; Example R1, rate of application 100 ppm, read-out: Efficacy in %): 20%; pest or weed control at 500 ppm (Alternaria brassicae; Example R1, rate of application 500 ppm, read-out: Efficacy in %): 70%; pest or weed control at 100 ppm (Puccinia recondita; [15]): 88%; pest or weed control at 500 ppm (Puccinia recondita; [16]): 94%; pest or weed control at 100 ppm (Uromyces appendiculatus; [17]): 100%; pest or weed control at 500 ppm (Uromyces appendiculatus; [18]): 100%; pest or weed control at 100 ppm (Septoria tritici; [19]): 97%; pest or weed control at 500 ppm (Septoria tritici; [20]): 100% |
| N#Cc1cncn1CC(O)(Cc1cccnc1Cl)C1(Cl)CC1 (stereo not shown) [Example I-26] |  |  | 80 to 89% |  | 90 to 100% |  | 90 to 100% | 90 to 100% | 70 to 79% | 90 to 100% | 2.01 | 90 to 100% | 90 to 100% | 90 to 100% |  |  |  | 70 to 79% | 80 to 89% | 90 to 100% |  |
| C#Cc1cncn1CC(O)(Cc1ccccc1F)C1(Cl)CC1 (stereo not shown) [Example I-36] | 90 to 100% | 90 to 100% | 90 to 100% |  | 90 to 100% |  | 90 to 100% | 90 to 100% | 80 to 89% | 90 to 100% | 1.89 | 80 to 89% | 90 to 100% | 90 to 100% | 57% | 93% | 100% | 90 to 100% | 90 to 100% | 90 to 100% | pest or weed control at 500 ppm (Botrytis cinerea; [12]): 100%; pest or weed control at 100 ppm (Sphaerotheca fuliginea; [13]): 100%; pest or weed control at 500 ppm (Sphaerotheca fuliginea; [14]): 100%; pest or weed control at 100 ppm (Puccinia recondita; [15]): 89%; pest or weed control at 500 ppm (Puccinia recondita; [16]): 94%; pest or weed control at 100 ppm (Uromyces appendiculatus; [17]): 100%; pest or weed control at 500 ppm (Uromyces appendiculatus; [18]): 100%; pest or weed control at 100 ppm (Septoria tritici; [19]): 83%; pest or weed control at 500 ppm (Septoria tritici; [20]): 75% |
